# Measurements as given in US5272164A, “Carboximidamide derivatives” (Kirin Beer Kabushiki Kaisha, priority 1988, dated 1993).
# Columns and labels:
# [1] = test system: potassium channel; details: in words; Trends in Pharmacological Sciences, 8, 283, 1987; cited from earlier work
# [2] = test system: potassium channel; assay: Potassium channel activating effect (86Rb efflux from rat thoracic aortae); assay type: cell-based, male Wistar rats; details: 10^-4 M, 8 minutes, percent of efflux before application
# Method: Male Wistar rats (weighing 250-350 g) were dehematized to death, and thoracic aortae were rapidly isolated. The aorta was opened along the longitudinal axis to prepare a flat sheet. The preparation was loaded with ^86 Rb in the Krebs-Ringer solution which contained ^86 Rb in the concentration of 10 μCi/ml and was gassed with 95% 02 5% CO2 at 37° C. for 2 hours. The preparation was then transferred to a Krebs-Ringer solution not containing ^86 Rb, and washed to remove excess radioactivity for 18 minutes by refreshing the solution every 2 minutes. Finally the preparation was placed into a Krebs-Ringer solution containing each compound (10^-4 M) for 8 minutes.
# The amount of ^86 Rb efflux from the preparation in each period was determined with a γ-counter.
# The increment in efflux rate during the application of the compound was expressed as percent of the efflux before the application of the compound.
# [3] = test system: isolated rat heart; assay: Effect on isolated rat heart (Langendorff's method); set-up: species or system male rats; details: 1 × 10^-8 mol/min, n=3, mean ± S.D.; for Coronary Perfusate Flow: ** p < 0.01 as compared with nicorandil
# Method: The effect of the compound of the present invention on heart of rats was examined by using the Langendorff's method [test compound: N-cyano-N'-(2-nitroxyethyl)-3-pyridinecarboximidamide (compound (13))]. Hearts were excised from male rats (weighing 250-350 g) and perfused at 80 cmH2 O in a Langendorff fashion. Krebs-Hensaleit bicarbonate solution (pH 7.4, 37° C.) containing an 11 mM glucose which was oxygenated with 95% O2 -5% CO2 gas mixture was used as a perfusate. The left ventricular pressure was recorded by inserting a latex balloon into the left ventricle, and heart rate was determined from the pulse of it. Coronary perfusate flow as also measured with an electromagnetic flowmeter. The experiments were carried out by perfusing a perfusate containing the compound (13) for 10 minutes after an initial equilibration period for 30 minutes. As the control compound, nicorandil which has an effect opening potassium channel and is similar to the test compound in structure was used. The changes in the coronary perfusate flow and the cardiac function (heart rate×left ventricular pressure) caused by these compounds were expressed as percent changes from the preperfusion values of the compound (13) or nicorandil.
# [4] = test system: isolated heart of rats; assay: Effect on myocardiac injury induced by re-perfusion after ischemia (isolated rat heart); details: mean ± SD
# Method: The cardiac muscle protecting effect of the compound of the present invention was tested by using the isolated heart of rats [test compound: N-cyano-N'-(2-nitroxyethyl)- 3-pyridinecarboximidamide (compound (13))]. The Langendorff's method was used in the same manner as in the aforementioned Referential Example 1)-6. The isolated heart was perfused with a perfusate for 30 minutes and then with a perfusate containing the test compound for 10 minutes, and perfusion was stopped so that the heart was in the so-called "ischemic state". Pacing was performed during the ischemia. […] Parameters of cardiac function after the onset of re-perfusion was monitored for 30 minutes, and the heart was quickly freezed. The amount of ATP in the heart muscle was extracted with perchloric acid and determined by HPLC. Nicorandil was used as a control.
# The recovery rate of the cardiac function (heart rate×left ventricular pressure) after onset of reperfusion was calculated based on the cardiac function prior to the perfusion of the compound (13) and nicorandil as 100%. The amount of ATP in the heart muscle was also determined.
SMILES,Increment of Efflux [2] [%],Coronary Perfusate Flow [3] [% change],other results
CC1(C)Oc2ccc(C#N)cc2[C@@H](N2CCCC2=O)[C@H]1O (relative stereo) [chromakalim],–,–,potassium channel activating effect [1]: potassium channel activating effect
"N#CNC(=NCc1ccccc1)c1cccnc1 [(17), N-cyano-N'-benzyl-3-pyridinecarboximidamide]",135.41,–,–
"N#CNC(=NCCc1ccccc1)c1cccnc1 [(27), N-cyano-N'-(2-phenylethyl)-3-pyridinecarboximidamide]",206.61,–,–
"N#CNC(=NCCO[N+](=O)[O-])c1ccncc1 [(41), N-cyano-N'-(2-nitroxyethyl)-4-pyridinecarboximidamide]",126.88,–,–
"N#CNC(=NCCO[N+](=O)[O-])c1cccnc1 [Compound (13), N-cyano-N'-(2-nitroxyethyl)-3-pyridinecarboximidamide]",213.53,51.3 ± 3.2,"Recovery rate of cardiac function ([4]; 1 × 10^-7 mole/min, n=3, ** p < 0.01 vs physiological saline group): 67.5 ± 6.0%"
O=C(NCCO[N+](=O)[O-])c1cccnc1 [Nicorandil],–,3.3 ± 5.6,"Cardiac Function (heart rate×left ventricular pressure) [3]: 3.7 ± 6.7 percent change; Recovery rate of cardiac function ([4]; 1 × 10^-6 mole/min, n=4): 12.7 ± 8.2%"
